The text below walks through data of patent US6083973A, “Methods for inhibiting mucin secretion using RAR α selective antagonists” (Syntex (U.S.A.) Inc., priority 1999, dated 2000).

By IC50 is commonly meant the concentration that gives 50% inhibition.

For one assay, the system named is RXR receptors. The settings on record: cited from earlier work.
Assay [1] has as its system MUC2. Nature of the assay: MUC2 gene transactivation in NHBE cells, RT-PCR. The class given is cell-based, human. The settings on record: for MUC2 gene induction: 1×10^-7 M, Example 1; for MUC2 gene expression, compound alone: Example 3, antagonist 1×10^-6 M or agonist 1×10^-7 M; for Induction of MUC2: even at the highest dose, 1×10^-6 M. On the procedure: (§1) Transactivation of mucin genes in normal primary human bronchial epithelial cells (NHBE) was performed as described by Gray et al. Am. J. Respir. Biol., 14:104-112 (1996). Primary human airway epithelial cells were cultured on porous Transwell membranes (Corning/Costar) in defined media in the absence of all-trans retinoic acid (ATRA) for 7 days. After seven days, fresh media±ATRA or selective retinoid, was added to the basal culture compartment to create an air-liquid interface (ALI). ATRA and/or selective retinoids were used at a concentration or 1×10^-7 M. The selective retinoids used were: Compound X (RARα selective agonist), RXR agonist (SRI 11217) and anti-AP1 retinoid (SRI 11302). After seven additional days of culture the media was harvested for analysis of secreted mucin gene product using specific ELISA as previously described (Gray et al). The cell layer was lysed using a guanidinium-based buffer (TRIZOL/Sigma) for RNA extraction and analysis. Amplification of MUC2 and MUC5AC RNA was performed by standard RT-PCR using appropriate selective primer and mimics pairs (Guzman et al., Am. J. Physiol. 271 (Lung Cell Mol Physiol.15): L1023-L1028 (1996) and PCR products were detected in ethedium bromide stained agarose gels.
(§2) Transactivation of mucin genes in NHBE was performed as described above with the exception that media was supplemented with RAR alpha (RARα), beta (RARβ), or gamma (RARγ)-selective retinoids on days 7 through day 14. The RAR alpha (RARα), beta (RARβ), or gamma (RARγ)-selective retinoids were compounds X, Y and CD-437 respectively.
(§3) Transactivation of mucin genes in NHBE was performed as described above. On days 7 through day 14 cells were cultured with 1×10^-6 M RARα antagonist, Compound Z, alone or in combination with 1×10^-7 M ATRA or RARα selective agonist, Compound X. The effects on mucin gene transactivation and expression were determined by RT-PCR and ELISA as described above. RARα selective antagonist, Compound Z, had no effect on MUC2 or MUC5AC gene expression.

Assay [2] concerns MUC5AC. Kind of assay: MUC5AC gene transactivation in NHBE cells, RT-PCR. It is filed as cell-based, human. The settings on record: for MUC5AC gene induction: 1×10^-7 M, Example 1; for MUC5AC gene expression, compound alone: Example 3, antagonist 1×10^-6 M or agonist 1×10^-7 M; for Induction of MUC5AC: even at the highest dose, 1×10^-6 M. The procedure:
as §1, §2, §3

For assay [3], the system named is primary human bronchial epithelium. Nature of the assay: Mucin protein secretion from NHBE cells, ELISA. The settings on record: for mucin secretion: 1×10^-7 M, FIG. 1(b). It is filed as cell-based. The procedure: as §1
Corresponding mucin protein secretion data are shown in FIG. 1(b) as ELISA data representing results from separate samples run in triplicate. Data presented as mean±sem. The mucin protein secretion data were consistent with gene induction results.
as §3
A general note: In an ELISA, binding on a coated surface is turned into a signal by an enzyme label.

The test system of assay [4] is LPS-induced mucin hypersecretion in rats. Nature of the assay: Mucous hypersecretion in rat model of LPS-induced lung inflammation. It is filed as in vivo. The settings on record: for mucous hypersecretion in rats: 10 mg/kg daily starting 72 hours prior to LPS challenge. On the procedure: (§4) All-trans retinoic acid (ATRA) was evaluated for its effects on mucous hypersecretion in the rat model of endotoxin/lipopolysacharide (LPS)-induced lung inflammation (Steiger et al. J. Am. Respir. Cell Mol. Biol., 12:307-314 (1995)). Animals were divided into treatment groups of approximately six. Lung inflammation was induced in male Long Evans rats by repeated instillation of LPS (LPS derived from Pseudomonas aeriginos; Sigma Chemical) 400 μg/Kg/dose/day for three days. ATRA was dissolved in DMSO (20 mg/ml) and stored at -20 C. Fresh working stocks were prepared fresh daily by dilution in PBS to a final concentration of 2 mg/ml. Animals treated with ATRA (2 mg/kg ip) were dosed once daily by intraperitoneal injection, starting 24 hours prior to the first LPS challenge. Two control groups were included in the study, treatment with vehicle (DMSO/PBS) followed by LPS and treatment with ATRA alone. Animals were sacrificed 24 hours after the last LPS challenge by exsanguination under deep anesthesia.
The lungs were lavaged with phosphate buffered saline (2×5 ml) to wash out mucous layer. The lavage fluid (BAL) was centrifuged for 10 min at 500×g and the cell-free supernate was frozen and stored -20° C. until analyzed for secreted mucin by Alcian-blue/PAS dot blot assay to determine relative contribution of neutral and acidic mucins. Standard curves were generated using bovine intestinal mucins (Sigma) TYPE 1 (Alc. blue/acidic mucins) and TYPE II (PAS+/neutral mucin). Each sample was assayed in triplicate and data presented as […] total mucin. (FIG. 4b)
The effect of RARα selective antagonists Ia and Ib on mucous hypersecretion in the rat and mouse models of LPS-induced lung inflammation was evaluated according to the procedure of Example 4. Animals were treated with compound (10 mg/kg) or vehicle daily starting 72 hours prior to LPS challenge.

Assay [5] has as its system goblet cell hyperplasia in rats. Kind of assay: LPS-induced goblet cell hyperplasia, morphometric analysis. The settings on record: ATRA 2 mg/kg ip once daily. The class given is in vivo, rat. On the procedure: as §4
After lavage the lungs were perfused with 10% neutral buffered formalin by intratracheal instillation at a constant rate (5 ml at 1 ml/min). The left lobe was excised and immersed in fixative for 24 hours prior to processing. Standard methods were used to prepare 5 μm paraffin sections. […]

The subject of assay [6] is mucin gene expression in human epithelial cells. Nature of the assay: Mucin gene expression (MUC2 and MUC5AC) in human epithelial cells. It is filed as cell-based. On the procedure: as §1, §3
In assay [7] the test system is RAR subtypes (α, β, and γ). The settings on record: cited from earlier work.
In the next assay the test system is NIH-292 cells. Nature of the assay: LPS-induced mucin gene expression in NIH-292 cells, real time RT-PCR. The settings on record: added 24 hours prior to 10 μg/ml LPS. It is filed as cell-based, human. The procedure: (§5) An in vitro assay was established to screen retinoid-based compounds for their effects on LPS-induced mucin gene expression using a continuous human lung epithelial cell line, NIH-292. NIH-292 cells were cultured in standard T-75 tissue culture flasks in DMEM/F12 media containing 10% fetal bovine serum (FBS). Upon confluence the media was changed to defined medium Optimem (Sigma) supplemented with 1% FBS 24 hours prior to challenge with 10 μg/ml LPS (P. aeriginos, Sigma Chemical). RAR selective antagonist, Compound Z, was added 24 hours prior to LPS challenge. ATRA and specific retinoids were prepared as DMSO stocks. Cells were harvested 6 or 24 hours after LPS challenge using a guanidinium-basedbuffer (TRIZOL/Sigma) for RNA extraction and analysis. Amplification of β-actin, MUC1, MUC2 and MUC5AC specific RNA was performed by using an automated fluorescent detection method for quantitation of real time RT-PCR (TAQMAN, Applied Biosystems/Perkin Elmer). Standard curves were generated for each of the relevant mucin RNAs using control plasmid. Analysis was performed in triplicate from duplicate samples.
(Quantitative PCR measures a nucleic acid by following its amplification.)

For assay [8], the system named is MUC5AC. Nature of the assay: LPS-stimulated MUC5AC mRNA transcription, dose response. The class given is cell-based. The settings on record: Homo sapiens, normalized to glyceraldehyde phosphate 3-dehydrogenase, read-out: inhibition of MUC5AC gene transcription IC50. On the procedure:
as §5
Cells were stimulated with LPS in the presence or absence of Ia. MUC5AC specific mRNA was measured and is graphed normalized relative to glyceraldehyde phosphate 3-dehydrogenase control.

Assay [9] deals with LPS-induced mucous hypersecretion in mice. Kind of assay: Mucous hypersecretion in mouse model of LPS-induced lung inflammation. The class given is in vivo. The settings on record: 10 mg/kg daily starting 72 hours prior to LPS challenge. The procedure: as §4, with “Two control groups were included in the study, treatment with vehicle (DMSO/PBS) followed by LPS and treatment with ATRA alone. Animals were sacrificed 24 hours after the last LPS challenge by exsanguination under deep anesthesia.” left out
The lungs were lavaged with phosphate buffered saline (2×5 ml) to wash out mucous layer. The lavage fluid (BAL) was centrifuged for 10 min at 500×g and the cell-free supernate was frozen and stored -20° C. until analyzed for secreted mucin by Alcian-blue/PAS dot blot assay to determine relative contribution of neutral and acidic mucins. […]
The effect of RARα selective antagonists Ia and Ib on mucous hypersecretion in the rat and mouse models of LPS-induced lung inflammation was evaluated according to the procedure of Example 4. […]

For assay [10], the system named is MUC2. The settings on record: G. An, et al.; cited from earlier work.
[11] abbreviates: 1×10^-6 M antagonist with 1×10^-7 M ATRA or Compound X.

As to `CC1=C(/C=C/C(C)=C\C=C\C(C)=C\C(=O)O)C(C)(C)CCC1` [9-cis isomer of retinoic acid], the “binding to RXR receptors” value with RXR receptors was “bind instead to the 9-cis isomer of retinoic acid”.

As for `CC1=C(/C=C/C(C)=C/C=C/C(C)=C/C(=O)O)C(C)(C)CCC1` [ATRA, All-trans retinoic acid], in the assay on MUC2 [1], the MUC2 gene induction result is “induce both MUC2 and MUC5AC gene induction”; the “MUC2 gene expression, compound alone” value is “potent inducers”. Besides, in the assay on MUC5AC [2], the MUC5AC gene induction result was “induce both MUC2 and MUC5AC gene induction”; the “MUC5AC gene expression, compound alone” value was “potent inducers”. In addition, in assay [3], the mucin secretion result is listed as “increase in mucin secretion”. The “LPS-induced mucin hypersecretion in rats” value in assay [4] (ATRA 2 mg/kg ip once daily) is given as “enhancement”. The “LPS-induced goblet cell hyperplasia” value in assay [5] is reported as “enhancement”. Moreover, in assay [6] (retinoid agonists), the “mucin gene expression, specifically MUC2 and MUC5AC” value is listed as “transactivates mucin gene expression”. In addition, in assay [7], the “binding to the three RAR subtypes” value is given as “binds with approximately equal affinity to all the three RAR subtypes”. Further, the “binding to RXR receptors” value in the assay with RXR receptors is on record as “do not bind to all-trans retinoic acid”.

For the compound `O=C(O)c1ccc2cc(-c3ccc(O)c(C45CC6CC(CC(C6)C4)C5)c3)ccc2c1` [CD-437, 6-[3-(1-adamantyl)-4-hydroxyphenyl]-2-naphthalenecarboxylic acid], in the assay with MUC2 [1] (Example 2), the “Induction of MUC2” value was “minimal”. Also, the “Induction of MUC5AC” value with MUC5AC [2] (Example 2) was “minimal”.

For `CCCCCCCOc1cc2c(cc1/C(C)=C/c1ccc(C(=O)O)cc1)C(C)(C)CCS2(=O)=O` [Compound Ia], the “inhibition of ATRA- or Compound X-induced MUC2” value in the assay with MUC2 [1] (setting [11]) was “completely inhibited”. Besides, the “MUC2 gene expression, compound alone” value with MUC2 [1] is reported as “no effect”. Besides, the “inhibition of ATRA- or Compound X-induced MUC5AC” value with MUC5AC [2] (setting [11]) is “completely inhibited”. Besides, the “MUC5AC gene expression, compound alone” value in the assay with MUC5AC [2] is recorded as “no effect”. Besides, the “inhibition of ATRA- or Compound X-induced mucin protein secretion” value in [3] (1×10^-6 M antagonist with 1×10^-7 M ATRA or Compound X, FIG. 3b) is reported as “completely inhibited”. The “LPS induced mucin gene expression” value in the assay with NIH-292 cells is recorded as “inhibit LPS induced mucin gene expression”. In addition, in the assay on MUC5AC [8], the IC50 is less than 10 nM. Further, the “mucous hypersecretion in rats” value in assay [4] is reported as “reduced the amount of mucous hypersecretion relative to vehicle”. In assay [9], the “mucous hypersecretion in mice” value was “reduced the amount of mucous hypersecretion relative to vehicle”. The “inhibition of retinoid induced mucin gene expression” value in assay [6] is recorded as “inhibited”.

For the compound `CCCCCCCOc1cc2c(cc1/C(C)=C/C=C/C(C)=C/C(=O)O)C(C)(C)CCS2(=O)=O` [Compound Ib], the “mucous hypersecretion in rats” value in [4] was “reduced the amount of mucous hypersecretion relative to vehicle”. The “mucous hypersecretion in mice” value in assay [9] is “reduced the amount of mucous hypersecretion relative to vehicle”. Further, the “inhibition of retinoid induced mucin gene expression” value in assay [6] is “inhibited”.

Consider `CC1(C)CCC(C)(C)c2cc(C(=O)Nc3ccc(C(=O)O)cc3)ccc21` [Compound X], for which, in the assay with MUC2 [1], the MUC2 gene induction result was “induce both MUC2 and MUC5AC gene induction”; the “MUC2 gene expression, compound alone” value is given as “potent inducers”. Further, in the assay with MUC2 [1] (1×10^-9 M, Example 2), the MUC2 gene activation result is “most potent inducer”. For the same compound, the “Induction of MUC2” value with MUC2 [1] (Example 2) is recorded as “minimal”. In the assay with MUC5AC [2], the MUC5AC gene induction entry was “induce both MUC2 and MUC5AC gene induction”; the “MUC5AC gene expression, compound alone” value is recorded as “potent inducers”. Besides, the MUC5AC gene activation result in the assay on MUC5AC [2] (1×10^-9 M, Example 2) was “most potent inducer”. In addition, in the assay on MUC5AC [2] (Example 2), the “Induction of MUC5AC” value is listed as “minimal”. The mucin secretion result in assay [3] was “increase in mucin secretion”.

Consider `CC(C)=C(c1ccc(C(=O)O)cc1)c1ccc2c(c1)C(C)(C)CCC2(C)C` [SRI 11217, 4-[1-(5,6,7,8-tetrahydro-5,5,8,8,-tetramethyl-2-naphthalenyl)-2-methylpropenyl]-benzoic acid], for which the MUC2 gene induction result in the assay with MUC2 [1] is reported as “no effect on induction of either gene”. Besides, the MUC5AC gene induction entry in the assay on MUC5AC [2] is “no effect on induction of either gene”.

For the compound `CC1=C(/C=C/C(C)=C/C=C/C(C)=C/CO)C(C)(C)CCC1` [retinol], the “expression of the MUC2 gene” value in the assay on MUC2 [10] is recorded as “down-regulated”.
